Source: paper PMC5218480 (PLoS ONE, 2017)

Tested on: MV-4-11 cells
Experiment: Gene expression microarray analysis (Affymetrix PrimeView) and GSEA
Assay type: cell-based, human
Parameters: RFU PODN (11730768_x_at) / Fold change /veh PODN (11730768_x_at) / RFU LINC00158 (11744669_a_at) / Fold change /veh LINC00158 (11744669_a_at) / RFU DUSP10 (11751237_a_at) / Fold change /veh DUSP10 (11751237_a_at) / RFU ID3 (11757404_x_at) / Fold change /veh ID3 (11757404_x_at) / RFU PLEKHG5 (11737974_s_at) / Fold change /veh PLEKHG5 (11737974_s_at) / RFU LRRC4B (11730491_at) / Fold change /veh LRRC4B (11730491_at) / RFU GIMAP4 (11747438_a_at) / Fold change /veh GIMAP4 (11747438_a_at) / RFU KRT8 (11758183_x_at) / Fold change /veh KRT8 (11758183_x_at) / RFU CNN1 (11734310_a_at) / Fold change /veh CNN1 (11734310_a_at) / RFU VPS37D (11726825_at) / Fold change /veh VPS37D (11726825_at) / RFU C10orf10 (11716522_x_at) / Fold change /veh C10orf10 (11716522_x_at) / RFU KIR2DL2 /// KIR2DL4 /// KIR2DL5A /// KIR2DL5B /// KIR2DS1 /// KIR2DS2 /// KIR2DS3 /// KIR2DS4 /// KIR3DL3 /// KIR3DL3 /// KIR3DS1 (11738374_at) / Fold change /veh KIR2DL2 /// KIR2DL4 /// KIR2DL5A /// KIR2DL5B /// KIR2DS1 /// KIR2DS2 /// KIR2DS3 /// KIR2DS4 /// KIR3DL3 /// KIR3DL3 /// KIR3DS1 (11738374_at) / RFU C1QL1 (11718748_at) / Fold change /veh C1QL1 (11718748_at) / RFU TMPRSS4 (11747572_a_at) / Fold change /veh TMPRSS4 (11747572_a_at) / RFU HAMP (11756126_x_at) / Fold change /veh HAMP (11756126_x_at) / RFU RNFT2 (11725882_a_at) / Fold change /veh RNFT2 (11725882_a_at) / RFU NR4A2 (11747474_a_at) / Fold change /veh NR4A2 (11747474_a_at) / RFU ABCC12 (11746883_a_at) / Fold change /veh ABCC12 (11746883_a_at) / RFU TMEM136 (11760407_x_at) / Fold change /veh TMEM136 (11760407_x_at) / RFU CLDN22 /// WWC2 (11732394_at) / Fold change /veh CLDN22 /// WWC2 (11732394_at) / RFU HLA-DPB1 (11760878_x_at) / Fold change /veh HLA-DPB1 (11760878_x_at) / RFU SPINT1 (11716480_a_at) / Fold change /veh SPINT1 (11716480_a_at) / RFU GAP43 (11754022_s_at) / Fold change /veh GAP43 (11754022_s_at) / RFU A4GNT (11735810_at) / Fold change /veh A4GNT (11735810_at) / RFU PRB3 (11715151_x_at) / Fold change /veh PRB3 (11715151_x_at) / RFU TUBB4B (11761932_at) / Fold change /veh TUBB4B (11761932_at) / RFU CAPN14 (11732068_a_at) / Fold change /veh CAPN14 (11732068_a_at) / RFU TMCC2 (11721928_a_at) / Fold change /veh TMCC2 (11721928_a_at) / RFU IRGQ (11745062_a_at) / Fold change /veh IRGQ (11745062_a_at) / RFU FAM174B (11720279_a_at) / Fold change /veh FAM174B (11720279_a_at) / RFU TMPRSS4 (11748680_a_at) / Fold change /veh TMPRSS4 (11748680_a_at) / RFU FAM212B (11763350_a_at) / Fold change /veh FAM212B (11763350_a_at) / RFU PLEKHG5 (11743358_a_at) / Fold change /veh PLEKHG5 (11743358_a_at) / RFU ZSCAN30 (11745921_a_at) / Fold change /veh ZSCAN30 (11745921_a_at) / RFU CMKLR1 (11741424_a_at) / Fold change /veh CMKLR1 (11741424_a_at) / RFU LOC101060620 /// MAPK8IP1 (11723275_at) / Fold change /veh LOC101060620 /// MAPK8IP1 (11723275_at) / RFU SPTSSB (11747773_x_at) / Fold change /veh SPTSSB (11747773_x_at) / RFU PRSS12 (11739890_at) / Fold change /veh PRSS12 (11739890_at) / RFU BIN1 (11741810_x_at) / Fold change /veh BIN1 (11741810_x_at) / RFU WNT11 (11732464_a_at) / Fold change /veh WNT11 (11732464_a_at) / RFU C10orf10 (11716521_a_at) / Fold change /veh C10orf10 (11716521_a_at) / RFU C5orf56 (11738089_at) / Fold change /veh C5orf56 (11738089_at) / RFU CYB561 (11721691_x_at) / Fold change /veh CYB561 (11721691_x_at) / RFU ANKRD19P (11752326_a_at) / Fold change /veh ANKRD19P (11752326_a_at) / RFU OR2T12 /// OR2T33 /// OR2T8 (11738714_s_at) / Fold change /veh OR2T12 /// OR2T33 /// OR2T8 (11738714_s_at) / RFU VCAN (11748164_a_at) / Fold change /veh VCAN (11748164_a_at) / RFU JSRP1 (11732532_at) / Fold change /veh JSRP1 (11732532_at) / RFU KRTAP10-11 (11738290_x_at) / Fold change /veh KRTAP10-11 (11738290_x_at) / RFU MYO3A (11730013_a_at) / Fold change /veh MYO3A (11730013_a_at) / RFU EBF3 (11725865_a_at) / Fold change /veh EBF3 (11725865_a_at) / RFU CAMK2N1 (11719241_x_at) / Fold change /veh CAMK2N1 (11719241_x_at) / RFU C5orf56 (11738088_a_at) / Fold change /veh C5orf56 (11738088_a_at) / RFU OLFML3 (11715873_a_at) / Fold change /veh OLFML3 (11715873_a_at) / RFU LOC100653217 /// NTM (11731650_a_at) / Fold change /veh LOC100653217 /// NTM (11731650_a_at) / RFU MAPK11 (11762145_a_at) / Fold change /veh MAPK11 (11762145_a_at) / RFU FIZ1 (11724087_x_at) / Fold change /veh FIZ1 (11724087_x_at) / RFU OASL (11726364_x_at) / Fold change /veh OASL (11726364_x_at) / RFU SOX15 (11748057_x_at) / Fold change /veh SOX15 (11748057_x_at) / RFU CD79A (11719716_a_at) / Fold change /veh CD79A (11719716_a_at) / RFU HIST1H1D (11736915_at) / Fold change /veh HIST1H1D (11736915_at) / RFU CASKIN2 (11723855_a_at) / Fold change /veh CASKIN2 (11723855_a_at) / RFU LOC730098 (11760151_x_at) / Fold change /veh LOC730098 (11760151_x_at) / RFU OR4N2 (11742367_at) / Fold change /veh OR4N2 (11742367_at) / RFU PRRT2 (11749266_a_at) / Fold change /veh PRRT2 (11749266_a_at) / RFU SNX32 (11753110_a_at) / Fold change /veh SNX32 (11753110_a_at) / RFU CDHR5 (11726645_a_at) / Fold change /veh CDHR5 (11726645_a_at) / RFU RCAN1 (11760418_a_at) / Fold change /veh RCAN1 (11760418_a_at) / RFU FAM167A (11723789_a_at) / Fold change /veh FAM167A (11723789_a_at) / RFU FAM26E (11764081_at) / Fold change /veh FAM26E (11764081_at) / RFU ISYNA1 (11749810_s_at) / Fold change /veh ISYNA1 (11749810_s_at) / RFU ACY1 (11761880_at) / Fold change /veh ACY1 (11761880_at) / RFU 11764098_at / Fold change /veh 11764098_at / RFU SAMD14 (11745864_x_at) / Fold change /veh SAMD14 (11745864_x_at) / RFU NPB (11741838_a_at) / Fold change /veh NPB (11741838_a_at) / RFU TMPRSS6 (11731388_a_at) / Fold change /veh TMPRSS6 (11731388_a_at) / RFU KRTAP10-2 (11738614_at) / Fold change /veh KRTAP10-2 (11738614_at) / RFU ARHGAP8 /// PRR5-ARHGAP8 (11727945_x_at) / Fold change /veh ARHGAP8 /// PRR5-ARHGAP8 (11727945_x_at) / RFU KRTAP5-7 /// NADSYN1 (11734609_at) / Fold change /veh KRTAP5-7 /// NADSYN1 (11734609_at) / RFU RASL12 (11751679_a_at) / Fold change /veh RASL12 (11751679_a_at) / RFU CDKN2B (11736163_a_at) / Fold change /veh CDKN2B (11736163_a_at) / RFU PRF1 (11729649_at) / Fold change /veh PRF1 (11729649_at) / RFU, ZNF638 /// ZNF638-IT1 / Fold change vs veh, ZNF638 /// ZNF638-IT1 / RFU, PANK3 / Fold change vs veh, PANK3 / RFU, SH3YL1 / Fold change vs veh, SH3YL1 / RFU, ZEB2 / Fold change vs veh, ZEB2 / RFU, NRIP1 / Fold change vs veh, NRIP1 / RFU, PTTG1IP / Fold change vs veh, PTTG1IP / RFU, CAPN2 / Fold change vs veh, CAPN2 / RFU, MED14 / Fold change vs veh, MED14 / RFU, SNORA58 / Fold change vs veh, SNORA58 / RFU, C1orf63 / Fold change vs veh, C1orf63 / RFU, LRRFIP1 / Fold change vs veh, LRRFIP1 / RFU, NDUFAF7 / Fold change vs veh, NDUFAF7 / RFU, SLC12A2 / Fold change vs veh, SLC12A2 / RFU, IBTK / Fold change vs veh, IBTK / RFU, ESF1 / Fold change vs veh, ESF1 / Fold change vs veh, TMEM50B / RFU, TAOK1 / Fold change vs veh, TAOK1 / RFU, ACBD3 / Fold change vs veh, ACBD3 / RFU, TMA16 / Fold change vs veh, TMA16 / RFU, RWDD3 / Fold change vs veh, RWDD3 / RFU, BCAT1 / Fold change vs veh, BCAT1 / RFU, EDEM3 / Fold change vs veh, EDEM3 / RFU, TMEM33 / Fold change vs veh, TMEM33 / RFU, WDR75 / Fold change vs veh, WDR75 / RFU, AHCTF1 / Fold change vs veh, AHCTF1 / RFU, TFRC / Fold change vs veh, TFRC / RFU, ZDHHC17 / Fold change vs veh, ZDHHC17 / RFU, NOM1 / Fold change vs veh, NOM1 / RFU, ARL8B / Fold change vs veh, ARL8B / RFU, ZBTB11 / Fold change vs veh, ZBTB11 / RFU, TAMM41 / Fold change vs veh, TAMM41 / RFU, KIAA1704 /// LOC100996395 / Fold change vs veh, KIAA1704 /// LOC100996395 / RFU, ING1 / Fold change vs veh, ING1 / RFU, TRMT61B / Fold change vs veh, TRMT61B / RFU, FUBP3 / Fold change vs veh, FUBP3 / RFU, TP53 / Fold change vs veh, TP53 / RFU, TNKS2 / Fold change vs veh, TNKS2 / RFU, ZFP14 / Fold change vs veh, ZFP14 / RFU, ACTR2 / Fold change vs veh, ACTR2 / RFU, PPP3R1 / Fold change vs veh, PPP3R1 / RFU, PIK3R1 / Fold change vs veh, PIK3R1 / RFU, HNRNPA1 / Fold change vs veh, HNRNPA1 / RFU, RNF170 / Fold change vs veh, RNF170 / RFU, ZNF28 / Fold change vs veh, ZNF28 / RFU, RNGTT / Fold change vs veh, RNGTT / RFU, OGT / Fold change vs veh, OGT / RFU, BRD1 / Fold change vs veh, BRD1 / RFU, MARS / Fold change vs veh, MARS / RFU, ZNF655 / Fold change vs veh, ZNF655 / RFU, FAHD1 / Fold change vs veh, FAHD1 / RFU, BDP1 / Fold change vs veh, BDP1 / RFU, LRRCC1 / Fold change vs veh, LRRCC1 / RFU, ARID1A / Fold change vs veh, ARID1A / RFU, ZNF146 / Fold change vs veh, ZNF146 / RFU, ZNF330 / Fold change vs veh, ZNF330 / RFU, GPN3 / Fold change vs veh, GPN3 / RFU, C9orf123 / Fold change vs veh, C9orf123 / RFU, N4BP2L2 / Fold change vs veh, N4BP2L2 / RFU, ARFIP1 / Fold change vs veh, ARFIP1 / RFU, FAM179B / Fold change vs veh, FAM179B / RFU, BCL10 / Fold change vs veh, BCL10 / RFU, UHRF1BP1L / Fold change vs veh, UHRF1BP1L / RFU, BET1 / Fold change vs veh, BET1 / RFU, CNOT2 / Fold change vs veh, CNOT2 / RFU, ZNF268 / Fold change vs veh, ZNF268 / Fold change vs veh, ZNF507 / RFU, DGCR2 / Fold change vs veh, DGCR2 / RFU, WDSUB1 / Fold change vs veh, WDSUB1 / Fold change vs veh, HSP90B1 /// MIR3652 / RFU, ADSS / Fold change vs veh, ADSS / RFU, GK / Fold change vs veh, GK / RFU, ZNF148 / Fold change vs veh, ZNF148 / RFU, TAF9 / Fold change vs veh, TAF9 / RFU, SLC1A5 / Fold change vs veh, SLC1A5 / RFU, SLMO2 / Fold change vs veh, SLMO2 / RFU, ABCC4 / Fold change vs veh, ABCC4 / RFU, LOC101060439 /// RAP1B / Fold change vs veh, LOC101060439 /// RAP1B / RFU, RFX7 / Fold change vs veh, RFX7 / RFU, GTPBP10 / Fold change vs veh, GTPBP10 / RFU, CNEP1R1 / Fold change vs veh, CNEP1R1 / RFU, BIVM-ERCC5 /// ERCC5 / Fold change vs veh, BIVM-ERCC5 /// ERCC5 / RFU, ILF3 / Fold change vs veh, ILF3 / RFU 11762660_at / Fold change /veh 11762660_at / RFU VCAN (11757783_s_at) / Fold change /veh VCAN (11757783_s_at) / RFU DDX43 (11728927_at) / Fold change /veh DDX43 (11728927_at) / RFU KRT8 (11758188_x_at) / Fold change /veh KRT8 (11758188_x_at) / RFU NKD1 (11759106_at) / Fold change /veh NKD1 (11759106_at) / RFU SRD5A1 (11742802_a_at) / Fold change /veh SRD5A1 (11742802_a_at) / RFU TPSAB1 /// TPSB2 (11721975_s_at) / Fold change /veh TPSAB1 /// TPSB2 (11721975_s_at) / RFU GSTM3 (11746129_a_at) / Fold change /veh GSTM3 (11746129_a_at) / RFU IL23R (11737362_x_at) / Fold change /veh IL23R (11737362_x_at) / RFU TMEM51 (11727254_a_at) / Fold change /veh TMEM51 (11727254_a_at) / RFU PIWIL2 (11732686_x_at) / Fold change /veh PIWIL2 (11732686_x_at) / RFU ORM1 (11744905_x_at) / Fold change /veh ORM1 (11744905_x_at) / RFU CCDC152 (11743942_at) / Fold change /veh CCDC152 (11743942_at) / RFU ECM1 (11717891_a_at) / Fold change /veh ECM1 (11717891_a_at) / RFU IL23R (11748794_a_at) / Fold change /veh IL23R (11748794_a_at) / RFU TNFAIP8L3 (11732012_x_at) / Fold change /veh TNFAIP8L3 (11732012_x_at) / RFU MBOAT4 (11741988_at) / Fold change /veh MBOAT4 (11741988_at) / RFU 11764193_at / Fold change /veh 11764193_at / RFU TMEM53 (11763286_at) / Fold change /veh TMEM53 (11763286_at) / RFU MAGEB2 (11727129_at) / Fold change /veh MAGEB2 (11727129_at) / RFU TMEM200A (11744735_a_at) / Fold change /veh TMEM200A (11744735_a_at) / RFU CCDC152 (11751479_a_at) / Fold change /veh CCDC152 (11751479_a_at) / RFU FAM211A (11726209_a_at) / Fold change /veh FAM211A (11726209_a_at) / RFU RGS16 (11746705_a_at) / Fold change /veh RGS16 (11746705_a_at) / RFU VCAN (11755009_s_at) / Fold change /veh VCAN (11755009_s_at) / RFU RHOB (11743442_s_at) / Fold change /veh RHOB (11743442_s_at) / RFU RGS16 (11720943_a_at) / Fold change /veh RGS16 (11720943_a_at) / RFU RGS16 (11720944_at) / Fold change /veh RGS16 (11720944_at) / RFU, VPS4B / Fold change vs veh, VPS4B / RFU, CREB1 / Fold change vs veh, CREB1 / RFU, DNAJC13 / Fold change vs veh, DNAJC13 / RFU, GNAQ / Fold change vs veh, GNAQ / RFU, CDK5R1 / Fold change vs veh, CDK5R1 / RFU, ZRANB3 / Fold change vs veh, ZRANB3 / RFU, CUL4A / Fold change vs veh, CUL4A / RFU, CCNY / Fold change vs veh, CCNY / RFU, UFL1 / Fold change vs veh, UFL1 / RFU, COG3 / Fold change vs veh, COG3 / RFU, DIAPH2 / Fold change vs veh, DIAPH2 / RFU, SKA2 / Fold change vs veh, SKA2 / RFU, AFF3 / Fold change vs veh, AFF3 / RFU, LMF1 / Fold change vs veh, LMF1 / RFU, IPO11 / Fold change vs veh, IPO11 / RFU, DFFB / Fold change vs veh, DFFB / RFU, FOXP1 / Fold change vs veh, FOXP1 / RFU, CARD8 / Fold change vs veh, CARD8 / RFU, STRN3 / Fold change vs veh, STRN3 / RFU, ADK / Fold change vs veh, ADK / RFU, RASSF2 / Fold change vs veh, RASSF2 / RFU, WIPF1 / Fold change vs veh, WIPF1 / RFU, LARP1B / Fold change vs veh, LARP1B / RFU, RASA1 / Fold change vs veh, RASA1 / RFU, RB1 / Fold change vs veh, RB1 / RFU, PPFIA1 / Fold change vs veh, PPFIA1 / RFU, MAT2A / Fold change vs veh, MAT2A / RFU, CCT5 / Fold change vs veh, CCT5 / RFU, WDR92 / Fold change vs veh, WDR92 / RFU, CUX1 / Fold change vs veh, CUX1 / RFU, TTC7A / Fold change vs veh, TTC7A / RFU, TMEM135 / Fold change vs veh, TMEM135 / RFU, DEPTOR / Fold change vs veh, DEPTOR / RFU, CPM / Fold change vs veh, CPM / RFU, DNAJB6 / Fold change vs veh, DNAJB6 / RFU, CACNA2D3 / Fold change vs veh, CACNA2D3 / RFU, DTX4 / Fold change vs veh, DTX4 / RFU, TFCP2 / Fold change vs veh, TFCP2 / RFU, GMCL1 /// GMCL1P1 / Fold change vs veh, GMCL1 /// GMCL1P1 / RFU, AEBP2 / Fold change vs veh, AEBP2 / RFU, SNHG1 /// SNORD22 /// SNORD25 /// SNORD26 /// SNORD27 /// SNORD28 /// SNORD29 /// SNORD31 / Fold change vs veh, SNHG1 /// SNORD22 /// SNORD25 /// SNORD26 /// SNORD27 /// SNORD28 /// SNORD29 /// SNORD31 / Fold change (Aza/veh), C12orf56 (ProbeSet 11735607_a_at) / Fold change (ACY-1035/veh), C12orf56 (ProbeSet 11735607_a_at) / Fold change (Aza/veh), FGFR1OP (ProbeSet 11751329_s_at) / Fold change (ACY-1035/veh), FGFR1OP (ProbeSet 11751329_s_at) / Fold change (Aza/veh), VPS36 (ProbeSet 11739960_a_at) / Fold change (ACY-1035/veh), VPS36 (ProbeSet 11739960_a_at) / RFU SYPL1 (11715823_x_at) / Fold change /veh SYPL1 (11715823_x_at) / RFU IGFBP7 (11715501_s_at) / Fold change /veh IGFBP7 (11715501_s_at) / RFU REEP3 (11722064_at) / Fold change /veh REEP3 (11722064_at) / RFU IGLL1 (11728026_x_at) / Fold change /veh IGLL1 (11728026_x_at): dose or concentration left out as unconfirmed
Settings: MV-4-11 cells, 48 hours

Nc1ncn([C@@H]2O[C@H](CO)[C@@H](O)[C@H]2O)c(=O)n1 [azacitidine]
RFU TMEM53 (11763286_at): 26.80 RFU
